Source: US20220056037A1 (SPV THERAPEUTICS INC., priority 2018, published 2022)

Key:
Assay type in all cases: cell-based
[1] = tested on: CEXF HeLa; test: 2D cell proliferation assay (CellTiter-Blue); details: Homo sapiens, 72 h; cell line CEXF HeLa; three days of treatment; read-out: IC (abs. IC50)
Method: (§1) Viability of the cells was analyzed by using the CellTiter-Blue® Cell Viability Assay (Promega), and was performed according to manufacturer's instructions. Briefly, cells were harvested from exponential phase cultures (Chapter 6.6), counted and plated in 96-well flat-bottom microtiter plates at a cell density of 4,000-60,000 cells/well in a volume of 140 μl per well. After a 24 hours recovery period, 10 μL cell culture medium (six control wells/plate) or culture medium with test compound were added (Chapter 6.2). The compounds were applied at five concentrations in full-log increments up to 100 μM in duplicate. Cultures were incubated at 37° C. and 5% CO2 in a humidified atmosphere for another three days. After three days of treatment, 20 μl/well CellTiter-Blue® reagent was added. Following incubation with CellTiter-Blue® reagent for up to four hours, fluorescence (FU) was measured by using the Enspire Multimode Plate Reader (excitation λ=570 nm, emission λ=600 nm). For calculations, the mean values of duplicate/sextuplicate (untreated control) data were used.
(§2) Drug effects were expressed in terms of the percentage of the fluorescence signal, obtained by comparison of the mean signal in the treated wells with the mean signal of the untreated controls (expressed by the test-versus-control value, T/C-value [%]):
(§3) IC values are reported as relative IC50 values and absolute IC50 and IC70 values. […] The absolute IC70 value gives the concentration of the test compound that achieves T/C=30%. The relative IC50 value is the concentration of test compound that gives a response half way between the top and bottom plateau of the sigmoidal concentration-response curve (inflection point of the curve). Calculation was done by 4parameter non-linear curve fit (Oncotest Data Warehouse Software).
(§4) If an IC50 or IC70 value could not be determined within the examined dose range (because a compound was either too active or lacked activity), the lowest or highest concentration studied was used for calculation of the geometric mean value.
(§5) The overall potency of a compound was determined by the geometric mean IC50/IC70 values of all individual IC50/IC70 values. In the heatmap representation of IC50 and IC70 values, the distribution of the IC50 or IC70 values obtained for a test compound in the individual cell lines is given in relation to the geometric mean […] or IC70 value, obtained over all PDX models tested. The individual IC values range from 1/32-fold geometric mean IC (corresponding to very potent compound activity or high tumor sensitivity) to 32-fold geometric mean IC (corresponding to lack of compound activity or tumor resistance). The heatmap presentation, therefore, represents an antiproliferative “fingerprint” profile of a test compound.

[2] = tested on: CXF HT-29; test: 2D cell proliferation assay (CellTiter-Blue); details: Homo sapiens, 72 h; cell line CXF HT-29; three days of treatment; read-out: IC (abs. IC50)
Method: as §1, §2, §3, §4, §5

[3] = tested on: GXA MKN45; test: 2D cell proliferation assay (CellTiter-Blue); details: Homo sapiens, MKN-45, 72 h; cell line GXA MKN45; three days of treatment; read-out: IC (abs. IC50)
Method: as §1, §2, §3, §4, §5

[4] = tested on: LEXFAL MOLT-4; test: 2D cell proliferation assay (CellTiter-Blue); details: Homo sapiens, 72 h; cell line LEXFAL MOLT-4; three days of treatment; read-out: IC (abs. IC50)
Method: as §1, §2, §3, §4, §5

[5] = tested on: LIXAH HLE; test: 2D cell proliferation assay (CellTiter-Blue); details: 72 h; cell line LIXAH HLE; three days of treatment; read-out: IC (abs. IC50)
Method: as §1, §2, §3, §4, §5

[6] = tested on: MAXFTN MDA-MB-231 (ER −); test: 2D cell proliferation assay (CellTiter-Blue); details: Homo sapiens, 72 h; cell line MAXFTN MDA-MB-231 (ER −); three days of treatment; read-out: IC (abs. IC50)
Method: as §1, §2, §3, §4, §5

[7] = tested on: MAXFTN MDA-MB-468 (ER −); test: 2D cell proliferation assay (CellTiter-Blue); details: Homo sapiens, 72 h; cell line MAXFTN MDA-MB-468 (ER −); three days of treatment; read-out: IC (abs. IC50)
Method: as §1, §2, §3, §4, §5

[8] = tested on: MEXF A2058; test: 2D cell proliferation assay (CellTiter-Blue); details: Homo sapiens, 72 h; cell line MEXF A2058; three days of treatment; read-out: IC (abs. IC50)
Method: as §1, §2, §3, §4, §5

[9] = tested on: MEXF MDA-MB-435; test: 2D cell proliferation assay (CellTiter-Blue); details: Homo sapiens, 72 h; cell line MEXF MDA-MB-435; three days of treatment; read-out: IC (abs. IC50)
Method: as §1, §2, §3, §4, §5

[10] = tested on: OVXF SK-OV-3; test: 2D cell proliferation assay (CellTiter-Blue); details: Homo sapiens, 72 h; cell line OVXF SK-OV-3; three days of treatment; read-out: IC (abs. IC50)
Method: as §1, §2, §3, §4, §5

[11] = tested on: PAXF MIA-Pa-Ca-2; test: 2D cell proliferation assay (CellTiter-Blue); details: Homo sapiens, MIA PaCa-2, 72 h; cell line PAXF MIA-Pa-Ca-2; three days of treatment; read-out: IC (abs. IC50)
Method: as §1, §2, §3, §4, §5

[12] = tested on: PRXF LNCaP; test: 2D cell proliferation assay (CellTiter-Blue); details: Homo sapiens, 72 h; cell line PRXF LNCaP; three days of treatment; read-out: IC (abs. IC50)
Method: as §1, §2, §3, §4, §5

[13] = tested on: UXF EFE-184; test: 2D cell proliferation assay (CellTiter-Blue); details: Homo sapiens, 72 h; cell line UXF EFE-184; three days of treatment; read-out: IC (abs. IC50)
Method: as §1, §2, §3, §4, §5

[14] = tested on: all cell lines tested; test: 2D cell proliferation assay (CellTiter-Blue), geometric mean over the panel; details: geometric mean of all individual IC50 values of Table 4; read-out: Geomean abs. IC50 value
Method: as §1, with “For calculations, the mean values of duplicate/sextuplicate (untreated control) data were used.” left out
as §4
The overall potency of a compound was determined by the geometric mean IC50/IC70 values of all individual IC50/IC70 values. […]

SMILES: CN1CCN(c2ccc(Nc3ncc4cc(C(=O)N(C)C)n(C56CC(C5)C6)c4n3)cc2)CC1 [SPV113]
- IC50 [1]: 329 nM
- IC50 [2]: 437 nM
- IC50 [3]: 1080 nM
- IC50 [4]: 567 nM
- IC50 [5]: 229 nM
- IC50 [6]: 340 nM
- IC50 [7]: 290 nM
- IC50 [8]: 1510 nM
- IC50 [9]: 296 nM
- IC50 [10]: 3150 nM
- IC50 [11]: 105 nM
- IC50 [12]: 116 nM
- IC50 [13]: 906 nM
- IC50 [14]: 391 nM
